For eleven compounds, IC50 results are on record in US20250163054A1, “SUBSTITUTED BICYCLIC HETEROARYL COMPOUNDS USEFUL AS INHIBITORS OF TLR9” (Bristol-Myers Squibb Company, priority 2022, published 2025).

What all share (type): cell-based
One assay addresses T1, human TLR9 (Homo sapiens, UniProt Q9NR96).
T1 construct: host or cells: HEK-Blue cells (HEK293-derived reporter line)
T1 sequence (Q9NR96 26-1032): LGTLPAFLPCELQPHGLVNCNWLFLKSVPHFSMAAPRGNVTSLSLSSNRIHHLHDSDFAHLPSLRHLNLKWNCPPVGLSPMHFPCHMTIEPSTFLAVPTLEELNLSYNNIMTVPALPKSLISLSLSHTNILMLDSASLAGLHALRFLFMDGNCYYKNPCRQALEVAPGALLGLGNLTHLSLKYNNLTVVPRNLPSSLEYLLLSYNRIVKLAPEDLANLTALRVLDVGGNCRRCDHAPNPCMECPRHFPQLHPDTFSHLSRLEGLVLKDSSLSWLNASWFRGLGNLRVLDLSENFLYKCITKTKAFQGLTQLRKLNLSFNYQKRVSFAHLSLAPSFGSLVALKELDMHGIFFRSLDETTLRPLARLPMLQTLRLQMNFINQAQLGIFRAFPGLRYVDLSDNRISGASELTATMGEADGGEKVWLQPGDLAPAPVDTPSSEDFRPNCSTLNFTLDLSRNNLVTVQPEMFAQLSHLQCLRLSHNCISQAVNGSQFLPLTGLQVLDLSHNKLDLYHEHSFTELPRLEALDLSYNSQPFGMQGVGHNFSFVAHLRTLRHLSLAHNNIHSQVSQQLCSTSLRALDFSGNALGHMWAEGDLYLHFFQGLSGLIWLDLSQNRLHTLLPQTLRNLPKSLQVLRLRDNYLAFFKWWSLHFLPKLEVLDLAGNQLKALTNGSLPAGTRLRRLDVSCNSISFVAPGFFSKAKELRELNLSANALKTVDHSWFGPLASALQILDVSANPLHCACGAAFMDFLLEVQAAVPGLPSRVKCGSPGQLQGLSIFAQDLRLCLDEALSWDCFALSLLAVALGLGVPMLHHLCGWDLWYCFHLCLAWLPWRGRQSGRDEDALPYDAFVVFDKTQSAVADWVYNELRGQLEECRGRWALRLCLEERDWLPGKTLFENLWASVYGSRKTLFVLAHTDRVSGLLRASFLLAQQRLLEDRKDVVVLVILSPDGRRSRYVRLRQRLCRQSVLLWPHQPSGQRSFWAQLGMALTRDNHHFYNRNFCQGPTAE
Briefly: TLR7/8/9 Inhibition Reporter Assays (TLR9). Particulars: HEK-Blue cells overexpressing human TLR9, SEAP reporter, stimulated with TLR9 ligand ODN2006. The method in brief:
(§1)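 HEK-Blue cells overexpressing human TLR7, TLR8 or TLR9 with NF-κB/AP-1-driven SEAP reporter, pre-treated 60 min with compound ([…]). Stimulated with […] (TLR7), […] (TLR8) or ODN2006 200 nM (TLR9), then 22 h at 37° C; SEAP measured, % inhibition relative to agonist-plus-DMSO and known-inhibitor wells.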
Background: In a reporter assay the amount or activity of a reporter protein is the signal.

A further assay addresses T2, human TLR7 (Homo sapiens, UniProt Q9NYK1).
T2 construct: host or cells: HEK-Blue cells (HEK293-derived reporter line)
T2 sequence (Q9NYK1 27-1049): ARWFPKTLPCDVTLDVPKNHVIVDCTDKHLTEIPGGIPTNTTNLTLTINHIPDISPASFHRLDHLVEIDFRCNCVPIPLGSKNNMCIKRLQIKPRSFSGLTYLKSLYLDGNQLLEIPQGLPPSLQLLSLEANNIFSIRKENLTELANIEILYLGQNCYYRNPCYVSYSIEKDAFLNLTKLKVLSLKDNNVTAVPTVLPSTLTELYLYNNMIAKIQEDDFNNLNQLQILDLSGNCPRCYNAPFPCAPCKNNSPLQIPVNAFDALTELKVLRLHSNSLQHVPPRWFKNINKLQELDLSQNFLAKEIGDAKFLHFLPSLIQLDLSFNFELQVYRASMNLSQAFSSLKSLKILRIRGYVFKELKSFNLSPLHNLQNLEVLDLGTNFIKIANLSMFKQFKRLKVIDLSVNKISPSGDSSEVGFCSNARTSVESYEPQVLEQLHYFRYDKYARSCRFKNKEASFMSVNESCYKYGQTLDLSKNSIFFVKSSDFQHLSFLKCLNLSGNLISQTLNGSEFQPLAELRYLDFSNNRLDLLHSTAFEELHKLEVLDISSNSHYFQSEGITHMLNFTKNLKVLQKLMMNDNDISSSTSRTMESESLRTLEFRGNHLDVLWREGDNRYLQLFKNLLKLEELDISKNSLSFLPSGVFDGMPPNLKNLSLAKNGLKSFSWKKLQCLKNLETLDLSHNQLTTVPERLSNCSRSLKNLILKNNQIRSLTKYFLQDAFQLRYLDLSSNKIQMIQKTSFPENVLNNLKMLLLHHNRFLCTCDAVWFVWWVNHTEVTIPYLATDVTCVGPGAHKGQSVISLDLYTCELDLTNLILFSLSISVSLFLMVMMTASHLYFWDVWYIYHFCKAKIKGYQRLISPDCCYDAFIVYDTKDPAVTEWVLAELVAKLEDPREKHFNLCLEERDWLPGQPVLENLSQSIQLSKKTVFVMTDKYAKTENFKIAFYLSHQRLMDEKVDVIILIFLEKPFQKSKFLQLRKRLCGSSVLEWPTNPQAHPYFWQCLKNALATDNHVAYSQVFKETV
In words: TLR7/8/9 Inhibition Reporter Assays (TLR7). Particulars: HEK-Blue cells overexpressing human TLR7, SEAP reporter, stimulated with TLR7 ligand gardiquimod. In short, it runs like this: as §1

Another assay addresses T3, human TLR8 (Homo sapiens, UniProt Q9NR97).
T3 construct: host or cells: HEK-Blue cells (HEK293-derived reporter line)
T3 sequence (Q9NR97 27-1041): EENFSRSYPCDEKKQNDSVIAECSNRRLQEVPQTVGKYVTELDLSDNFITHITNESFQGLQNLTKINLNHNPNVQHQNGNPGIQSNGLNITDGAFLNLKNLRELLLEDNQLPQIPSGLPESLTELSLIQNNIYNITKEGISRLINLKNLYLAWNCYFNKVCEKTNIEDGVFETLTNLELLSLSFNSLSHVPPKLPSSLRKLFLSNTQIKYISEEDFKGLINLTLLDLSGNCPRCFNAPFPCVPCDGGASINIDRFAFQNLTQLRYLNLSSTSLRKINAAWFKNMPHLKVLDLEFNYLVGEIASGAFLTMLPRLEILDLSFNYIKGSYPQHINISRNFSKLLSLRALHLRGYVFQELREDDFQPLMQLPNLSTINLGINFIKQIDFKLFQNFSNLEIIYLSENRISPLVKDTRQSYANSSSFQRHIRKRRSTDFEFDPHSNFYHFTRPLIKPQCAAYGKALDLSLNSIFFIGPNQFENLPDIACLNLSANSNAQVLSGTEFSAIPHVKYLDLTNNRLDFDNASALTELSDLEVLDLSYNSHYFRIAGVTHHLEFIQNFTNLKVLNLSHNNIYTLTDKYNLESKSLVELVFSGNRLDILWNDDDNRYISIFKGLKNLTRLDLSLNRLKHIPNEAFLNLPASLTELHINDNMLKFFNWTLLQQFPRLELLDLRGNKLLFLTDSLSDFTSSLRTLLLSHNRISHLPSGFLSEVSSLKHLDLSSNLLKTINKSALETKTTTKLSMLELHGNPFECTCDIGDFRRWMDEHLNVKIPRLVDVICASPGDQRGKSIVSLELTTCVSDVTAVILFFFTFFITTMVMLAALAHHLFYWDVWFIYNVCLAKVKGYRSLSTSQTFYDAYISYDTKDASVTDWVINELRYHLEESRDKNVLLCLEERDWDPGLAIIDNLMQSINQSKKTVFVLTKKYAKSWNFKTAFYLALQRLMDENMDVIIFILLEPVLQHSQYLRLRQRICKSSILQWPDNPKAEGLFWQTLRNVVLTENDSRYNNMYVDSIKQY
In words: TLR7/8/9 Inhibition Reporter Assays (TLR8). Particulars: HEK-Blue cells overexpressing human TLR8, SEAP reporter, stimulated with TLR8 ligand R848. In short, it runs like this: as §1

pIC50: −log10 of the molar value. A value given as a limit tells only on which side of the number the result lay.

By pIC50 is commonly meant the negative decadic logarithm of the IC50, by convention in mol/L. For the compound `Cc1nc(-c2ccc(N3CCC(N(C)C)CC3)cc2)cc2c1nc(-c1ccc(S(C)(=O)=O)cc1)n2C` [Example 4, 1-(4-(1,4-dimethyl-2-(4-(methylsulfonyl)phenyl)-1H-imidazo[4,5-c]pyridin-6-yl)phenyl)-N,N-dimethylpiperidin-4-amine], the pIC50 against human TLR9 is 6.92; against human TLR7, 5.89; against human TLR8, 5.04.

Take `COCCN1CC2(C1)CN(c1ccc(-c3cc4c(nc(-c5ccc(S(C)(=O)=O)cc5)n4C)c(C)n3)cc1)C2` [Example 104, 6-(4-(6-(2-methoxyethyl)-2,6-diazaspiro[3.3]heptan-2-yl)phenyl)-1,4-dimethyl-2-(4-(methylsulfonyl)phenyl)-1H-imidazo[4,5-c]pyridine]: the values for the pIC50 against human TLR9, at human TLR7 and on human TLR8 were 6.68, 5.11 and 4.80, respectively.

For `Cc1nc(-c2ccc(N3CC4(CN(CC(C)C)C4)C3)cc2)cc2c1nc(-c1ccc(S(C)(=O)=O)cc1)n2C` [Example 57, 6-(4-(6-isobutyl-2,6-diazaspiro[3.3]heptan-2-yl)phenyl)-1,4-dimethyl-2-(4-(methylsulfonyl)phenyl)-1H-imidazo[4,5-c]pyridine], the pIC50 at human TLR9 was 6.82; against human TLR7, 5.40; against human TLR8, 5.32.

On to `Cc1nc(-c2ccc(CN3CCC(N4CCOCC4)CC3)cc2)cc2c1nc(-c1ccc(S(C)(=O)=O)cc1)n2C` [Example 54, 4-(1-(4-(1,4-dimethyl-2-(4-(methylsulfonyl)phenyl)-1H-imidazo[4,5-c]pyridin-6-yl)benzyl)piperidin-4-yl)morpholine], for which the pIC50 against human TLR9 was 6.62; against human TLR7 it was < 4.30; against human TLR8 it was 5.02.

As for `Cc1nc(-c2ccc(N3C[C@H]4CN(CC(C)(C)O)C[C@H]4C3)cc2)cc2c1nc(-c1ccc(S(C)(=O)=O)cc1)n2C` [Example 93, 1-((3aR,6aS)-5-(4-(1,4-dimethyl-2-(4-(methylsulfonyl)phenyl)-1H-imidazo[4,5-c]pyridin-6-yl)phenyl)hexahydropyrrolo[3,4-c]pyrrol-2(1H)-yl)-2-methylpropan-2-ol], the values for the pIC50 against human TLR9, against human TLR7 and against human TLR8 were 7.10, 6.09 and 5.70, respectively.

For the compound `Cc1nc(-c2ccc(N3CCC(N4CCCC4)CC3)cc2F)cc2c1nc(-c1ccc(S(C)(=O)=O)cc1)n2C` [Example 43, 6-(2-fluoro-4-(4-(pyrrolidin-1-yl)piperidin-1-yl)phenyl)-1,4-dimethyl-2-(4-(methylsulfonyl)phenyl)-1H-imidazo[4,5-c]pyridine], the results for the pIC50 at human TLR9, at human TLR7 and on human TLR8 were 6.54, 5.41 and 5.64, respectively.

As for `CC(C)CN1CCC(N2CCC(c3cc4c(cn3)nc(-c3ccc(S(C)(=O)=O)cc3)n4C)CC2)CC1` [Example 31, 6-(1′-isobutyl-[1,4′-bipiperidin]-4-yl)-1-methyl-2-(4-(methylsulfonyl)phenyl)-1H-imidazo[4,5-c]pyridine], the negative-log IC50 (pIC50) on human TLR9 was 6.62; on human TLR7 it was 5.32; against human TLR8 it was < 4.60.

Regarding `Cc1nc(-c2ccc(N3C[C@@H]4CN(C5CCC5)C[C@@H]4C3)cc2)cc2c1nc(-c1ccc(S(C)(=O)=O)cc1)n2C` [Example 69, 6-(4-((3aR,6aS)-5-cyclobutylhexahydropyrrolo[3,4-c]pyrrol-2(1H)-yl)phenyl)-1,4-dimethyl-2-(4-(methylsulfonyl)phenyl)-1H-imidazo[4,5-c]pyridine], the pIC50 against human TLR9 is 7.43; against human TLR7, 5.55; at human TLR8, 5.27.

Turning to `COc1ccc(-c2nc3cnc(-c4ccc(N5C[C@@H]6CN(C(C)C)C[C@@H]6C5)cc4)cc3n2C2CC2)cc1OC` [Example 81, 1-cyclopropyl-2-(3,4-dimethoxyphenyl)-6-(4-((3aR,6aS)-5-isopropylhexahydropyrrolo[3,4-c]pyrrol-2(1H)-yl)phenyl)-1H-imidazo[4,5-c]pyridine], the pIC50 at human TLR9 was 6.92; against human TLR7, 5.52; against human TLR8, 5.48.

`CC(C)N1CC2(CCN(c3ccc(-c4cc5c(cn4)nc(-c4ccc(S(C)(=O)=O)cc4)n5C)cc3)CC2)C1` [Example 95, 6-(4-(2-isopropyl-2,7-diazaspiro[3.5]nonan-7-yl)phenyl)-1-methyl-2-(4-(methylsulfonyl)phenyl)-1H-imidazo[4,5-c]pyridine]: the results for the pIC50 on human TLR9, against human TLR7 and at human TLR8 were 6.46, 5.68 and 6.05, respectively.

On to `Cc1nc(-c2ccc(CN3CCC(N4CCOCC4)CC3)cc2)cc2c1nc(-c1ccc(S(C)(=O)=O)cc1)n2C1CC1` [Example 48, 4-(1-(4-(1-cyclopropyl-4-methyl-2-(4-(methylsulfonyl)phenyl)-1H-imidazo[4,5-c]pyridin-6-yl)benzyl)piperidin-4-yl) morpholine], for which the pIC50 on human TLR9 was 6.57; on human TLR7 it was 5.42; on human TLR8 it was 5.77.
